System: not given
Assay: not given
Conditions: not given

Point of comparison: `O=C(Nc1ccccc1Cl)Nc1cccc(C(F)(F)F)c1O` [Example 213, N-(2-hydroxy-3-trifluoromethylphenyl)-N′-(2-chlorophenyl)urea], melting point 179.3 °C. Against it:
- O=C(Nc1ccc([N+](=O)[O-])cc1O)Nc1ccccc1Sc1ccccc1[N+](=O)[O-] — higher, 204.1 to 205.3 °C
- COC(=O)c1ccc(NC(=O)Nc2ccccc2)c(O)c1 [Example 1, N-[2-Hydroxy-4-(methoxycarbonyl)phenyl]-N′-phenyl urea] — higher, 188.4 to 188.8 °C
- NC(=O)c1ccc(NC(=O)Nc2ccccc2)c(O)c1 [Example 3, 3-hydroxy-4-{[(phenylamino)carbonyl]amino}benzamide] — lower, 106.8 to 107.1 °C
- O=C(Nc1ccccc1)Nc1ccc(F)cc1O [Example 4, N-(2-hydroxy-4-fluorophenyl)-N′-phenyl urea] — higher, 195.5 to 195.7 °C
- O=C(Nc1ccccc1)Nc1ccccc1S [Example 5, 2-{[(phenylamino)carbonyl]amino}thiophenol] — higher, 194.5 °C
- COc1ccsc1NC(=O)Nc1cc([N+](=O)[O-])ccc1O [Example 11, N-(2-hydroxy-5-nitrophenyl)-N′-(3-methoxy-2-thienyl)urea] — lower, 172.6 to 173 °C
- O=C(Nc1cccc(C(F)(F)F)c1O)Nc1cccc(Cl)c1Cl [Example 203, N-(2-hydroxy-3-trifluoromethylphenyl)-N′-(2,3-dichlorophenyl)urea] — higher, 204.3 to 205.2 °C
- O=C(Nc1ccccc1-c1ccccc1)Nc1cccc(C(F)(F)F)c1O [Example 204, N-(2-hydroxy-3-trifluoromethylphenyl)-N′-(2-phenylphenyl)urea] — lower, 136.7 to 137.3 °C
- O=C(NCCO)Nc1ccc([N+](=O)[O-])cc1O [Example 214, N-(2-Hydroxyethyl)-N′-(2-hydroxy-4-nitrophenyl)urea] — lower, 168.2 to 168.8 °C
- O=C(Nc1ccc([N+](=O)[O-])cc1O)Nc1ccccc1NS(=O)(=O)c1cccs1 [Example 216, N-[2-(2-thienylsulfonylamino)phenyl]-N′-(2-hydroxy-4-nitrophenyl)urea] — lower, 149 to 149.6 °C
- O=C(Nc1ccc([N+](=O)[O-])cc1O)Nc1ccccc1OCc1cccnc1 [Example 221, N-[2-(3-Pyridylmethoxy)phenyl]-N′-(2-hydroxy-4-nitrophenyl)urea] — higher, 185.4 to 186.2 °C
- O=C(Nc1ccc([N+](=O)[O-])cc1O)Nc1ccccc1OCc1ccncc1 [Example 222, N-[2-(4-Pyridylmethoxy)phenyl]-N′-(2-hydroxy-4-nitrophenyl)urea] — higher, 189.3 to 189.7 °C
- COC(=O)Nc1ccccc1NC(=O)Nc1ccc([N+](=O)[O-])cc1O [Example 223, N-[2-(Methoxycarbonylamino)phenyl]-N′-(2-hydroxy-4nitrophenyl)urea] — higher, 199.3 to 199.6 °C
- N#Cc1ccc(NC(=O)Nc2ccccc2NCc2ccccc2)c(O)c1 [Example 232, N-(2-Hydroxy-4-cyanophenyl)-N′-(2-benzylaminophenyl)urea] — lower, 108.8 to 109.4 °C
- NC(=O)N(c1ccc([N+](=O)[O-])cc1O)c1ccccc1OCc1ccccn1 [Example 233, N′-[2-(2-Pyridylmethoxy)phenyl]-N′-(2-Hydroxy-4-nitrophenyl)urea] — higher, 193.5 to 194 °C
- O=C(Nc1ccc([N+](=O)[O-])cc1O)Nc1ccccc1NC(=O)c1ccccc1 [Example 236, N-[2-(Benzoylamino)phenyl]-N′-(2-hydroxy-4-nitrophenyl)urea] — higher, 188.7 to 189.3 °C

Molecular target: T1, recombinant IL-8 Rb, or Type II, receptor (permissive receptor) (Homo sapiens, UniProt P25025)
T1 construct: expressed in transfected cells; host or cells: Chinese hamster ovary cells (membrane preparation)
T1 sequence (P25025 1-360): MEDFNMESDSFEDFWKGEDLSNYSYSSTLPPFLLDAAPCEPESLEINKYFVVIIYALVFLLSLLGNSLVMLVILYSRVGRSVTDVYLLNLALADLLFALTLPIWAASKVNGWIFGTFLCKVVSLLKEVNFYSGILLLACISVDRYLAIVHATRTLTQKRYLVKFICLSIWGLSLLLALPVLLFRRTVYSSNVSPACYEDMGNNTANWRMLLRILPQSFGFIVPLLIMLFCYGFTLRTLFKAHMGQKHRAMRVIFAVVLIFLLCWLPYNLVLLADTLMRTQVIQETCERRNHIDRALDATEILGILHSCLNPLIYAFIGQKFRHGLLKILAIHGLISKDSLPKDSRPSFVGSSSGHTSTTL
Assay: Receptor binding assay, 125I IL-8, permissive (Type II) receptor
Conditions: concentration at which active
Text: [^125I] IL-8 (human recombinant) was obtained from Amersham Corp., Arlington Heights, Ill., with specific activity 2000 Ci/mmol. Gro-a was obtained from NEN-New England Nuclear. All other chemicals were of analytical grade. High levels of recombinant human IL-8 type a and b receptors were individually expressed in Chinese hamster ovary cells as described previously (Holmes, et al., Science, 1991, 253, 1278). The Chinese hamster ovary membranes were homogenized according to a previously described protocol (Haour, et al., J Biol Chem., 249 pp 2195-2205 (1974)). Except that the homogenization buffer was changed to 10 mM Tris-HCL, 1 mM MgS04, 0.5 mM EDTA (ethylene-diaminetetra-acetic acid), 1 m MPMSF (a-toluenesulphonyl fluoride), 0.5 mg/L Leupeptin, pH 7.5. Membrane protein concentration was determined using Pierce Co. micro-assay kit using bovine serum albumin as a standard. All assays were performed in a 96-well micro plate format. Each reaction mixture contained ^125I IL-8 (0.25 nM) or ^125I Gro-a and 0.5 μg/mL of IL-8Ra or 1.0 μg/mL of IL-8Rb membranes in 20 mM Bis-Trispropane and 0.4 mM Tris HCI buffers, pH 8.0, containing 1.2 mM MgSO4, 0.1 mM EDTA, 25 mM NaCl and 0.03% CHAPS. […] The filter was then dried and counted on the Betaplate liquid scintillation counter. […]

With `Cc1cc(Cl)ccc1NC(=O)Nc1ccccc1C(=O)O` [1-(2-Carboxyphenyl)-3-(4-chloro-2-methylphenyl)urea] the “found to be active at (IL-8 receptor inhibition)” value was “about 75 μg/mL”.
